Results from patent publication US20100093642A1, “NOVEL POLYPEPTIDES” (priority 2006, published 2010).
≈ marks a conversion by molar mass, not a printed value. Where two headings read alike, the source gives them in different places. Residues, ends and D or L forms follow the SMILES beside them. No end group written: not given here.

What was measured:
Pseudomonas aeruginosa = assay type: cell-based
Summary of the method: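 Peptide fractions were incubated with actively growing bacteria in Mueller Hinton medium at a starting concentration of 3×10^4 cells per ml. Growth was monitored continuously in a Bioscreen C reader; polymyxin B served as reference.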

Saccharomyces cerevisiae = details: 48 h
Summary of the method: (§1)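 Broth microdilution in half-strength potato dextrose broth, final 2×10^5 spores per ml, peptides in two-fold dilutions from 50 μM to 0.1 μM final. Incubated in the dark without shaking at 25° C. (37° C. for C. albicans) for 48 h; MIC is lowest concentration giving 50% inhibition of visible growth, scored microscopically.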

Botrytis cinerea 101 = details: 48 h
Summary of the method: as §1

[1] = system: Candida albicans (ATCC 10231)
Summary of the method: as §1

[2] = system: Acinetobacter baumannilii, K15-9; assay type: cell-based; details: clinical isolate; 37° C.; 3×10^6 cells per ml
Description: (§2) The antibacterial activities of the different peptides were determined by continuous monitoring of bacterial growth with a Bioscreen C microbiology reader (Labsystems Oy, Helsinki, Finland). The test was performed in 100-well flat-bottomed honeycomb plates, in which 50 μl of test fractions were incubated with 50 μl of a suspension of an actively growing culture of bacteria diluted in Mueller Hinton medium to a starting concentration of 3×10^4 cells per ml. The Gram-negative bacteria, Listonella (Vibrio) anguillarum, serotype O2 (FT 1801, a fish pathogenic strain), Pseudomonas aeruginosa and E. coli (ATCC 25922), and the Gram-positive bacteria, C. glutamicum (ATCC 13032) and S. aureus (ATCC 9144), were chosen as test bacteria. The growth chamber was maintained at either 20 or 37° C. during the incubation period. The absorbance was measured at 2 h intervals for 48 h by a turbidometric method with vertical light photometry and a wide band filter (420-580 nm), which is more insensitive to color change in the sample compared to single wavelength detection. Antibacterial activity was determined when the optical density (OD) of the growth control (bacteria plus water) reached an absorbance of 0.3-0.4. Fractions were regarded as active when the OD was less than 50% of the growth control. Polymyxin B (Sigma, St. Louis, Mo., USA), Lactoferricin B, Cecropin P1 and Hyalophora cecropia Cecropin B were used as reference.
(§3) The antimicrobial molecules were also tested against drug resistant clinical isolates, such as the commonly encountered multi-resistant human pathogen S. aureus (MRSA) K15-64 and the glycopeptide (vancomycin)-resistant Enterococccus faecium (GREF) K9-28. The non-clinical isolates Escherichia coli (ATCC 25922), Pseudomonas aeruginosa (ATCC 27853), Corynebacterium glutamicum (ATCC 13032), and Staphylococcus aureus (ATCC 9144) were also tested for comparison. Serial dilutions of synthetic peptides were made in double distilled water and tested according to the method described above. However, in these experiments the starting concentration of bacteria were 3×10^6 cells per ml and the temperature in the growth chamber was 37° C. Polymyxin B was used as positive control for the Gram-negative bacteria.

[3] = system: Citrobacter freundii, K15-75; assay type: cell-based; details: clinical isolate; 37° C.; 3×10^6 cells per ml
Description: as §2, §3

[4] = system: Staphylococcus aureus, ATCC 9144; assay type: cell-based; details: non-clinical isolate; 37° C.; 3×10^6 cells per ml
Description: as §2, §3

Pseudomonas K15-60 = assay type: cell-based
Description: as §2, §3

Escherichia coli, K15-58 = assay type: cell-based; details: clinical isolate; 37° C.; 3×10^6 cells per ml
Description: as §2, §3

[5] = yeast, more than 50% inhibition of visible growth
[6] = yeast, more than 50% inhibition of visible growth, 48 h, 37° C.

Row | Compound | Minimal inhibitory concentration, P. aeruginosa (Pseudomonas aeruginosa) | Minimal inhibitory concentration (MIC), Saccharomyces cerevisiae (Saccharomyces cerevisiae) | Minimal inhibitory concentration (MIC), Botrytis cinerea (Botrytis cinerea 101) | Minimal inhibitory concentration (MIC), Candida albicans ([1]; ATCC 10231, 48 h) | Minimal inhibitory concentration (MIC), Saccharomyces cerevisiae (Saccharomyces cerevisiae; [5]) | Minimal inhibitory concentration (MIC), Candida albicans [1, 6] | Minimal inhibitory concentration, Acinetobacter baumannilii, K15-9 [2] | Minimal inhibitory concentration, Citrobacter freundii, K15-75 [3] | Minimal inhibitory concentration, Staphylococcus aureus, ATCC 9144 [4] | Minimal inhibitory concentration, Pseudomonas K15-60 (Pseudomonas K15-60) | Minimal inhibitory concentration, Escherichia coli, K15-58 (Escherichia coli, K15-58)
1 | CC[C@H](C)[C@H](NC(=O)CNC(=O)[C@H](CO)NC(=O)[C@H](CCCCN)NC(=O)[C@@H](NC(=O)[C@H](C)NC(=O)[C@H](Cc1c[nH]cn1)NC(=O)[C@H](CO)NC(=O)[C@@H](NC(=O)[C@H](CCCCN)NC(=O)[C@H](Cc1c[nH]cn1)NC(=O)[C@H](Cc1ccccc1)NC(=O)[C@@H](NC(=O)[C@H](CCCCN)NC(=O)[C@H](CCCCN)NC(=O)[C@H](Cc1ccccc1)NC(=O)C(Cc1c[nH]c2ccc(Br)cc12)NC(=O)CN)[C@@H](C)O)C(C)C)C(C)C)C(=O)N[C@@H](Cc1c[nH]cn1)C(=O)N[C@@H](C)C(=O)O (stereo partly shown) [P17 HC-Br (1-20)] (HELM PEPTIDE1{G.[O=C(C(Cc1c[nH]c2ccc(Br)cc12)N[*:1])[*:2]].F.K.K.T.F.H.K.V.S.H.A.V.K.S.G.I.H.A}$$$$V2.0; N-terminus and C-terminus assumed) | 6.25 µM (≈ 14.7 µg/mL) | 12.5 µM (≈ 29.3 µg/mL) | 50 µM (≈ 117 µg/mL) | 6.25 µM (≈ 14.7 µg/mL) |  |  |  |  |  |  | 
2 | CC[C@H](C)[C@H](NC(=O)CNC(=O)[C@H](CO)NC(=O)[C@H](CCCCN)NC(=O)[C@@H](NC(=O)[C@H](C)NC(=O)[C@H](Cc1c[nH]cn1)NC(=O)[C@H](CO)NC(=O)[C@@H](NC(=O)[C@H](CCCCN)NC(=O)[C@H](Cc1c[nH]cn1)NC(=O)[C@H](Cc1ccccc1)NC(=O)[C@@H](NC(=O)[C@H](CCCCN)NC(=O)[C@H](CCCCN)NC(=O)[C@H](Cc1ccccc1)NC(=O)C(Cc1c[nH]c2ccc(Br)cc12)NC(=O)CN)[C@@H](C)O)C(C)C)C(C)C)C(=O)N[C@@H](Cc1c[nH]cn1)C(=O)N[C@@H](C)C(=O)NCC(=O)N[C@@H](CCC(N)=O)C(=O)N[C@@H](CCCNC(=N)N)C(=O)NCC(=O)N[C@@H](CS)C(=O)N[C@@H](CO)C(=O)N[C@@H](C)C(=O)N[C@@H](CC(C)C)C(=O)NCC(=O)N[C@@H](Cc1ccccc1)C(=O)O (stereo partly shown) [P17 HC-Br] (HELM PEPTIDE1{G.[O=C(C(Cc1c[nH]c2ccc(Br)cc12)N[*:1])[*:2]].F.K.K.T.F.H.K.V.S.H.A.V.K.S.G.I.H.A.G.Q.R.G.C.S.A.L.G.F}$$$$V2.0) | 3.12 µM (≈ 10.4 µg/mL) |  | 25 µM (≈ 83 µg/mL) |  | 6.25 µM (≈ 20.8 µg/mL) | 6.25 µM (≈ 20.8 µg/mL) | 1.56 µM (≈ 5.18 µg/mL) | 1.56 µM (≈ 5.18 µg/mL) | 12.5 µM (≈ 41.5 µg/mL) | 3.12 µM (≈ 10.4 µg/mL) | 3.12 µM (≈ 10.4 µg/mL)
3 | GWFKKTFHKVSHAVKSGIHA [P17 HC (1-20)] | 6.25 µM | 12.5 µM | 100 µM | 6.25 µM |  |  | 6.25 µM | 12.5 µM | >50 µM | 12.5 µM | 6.25 µM
4 | GWFKKTFHKVSHAVKSGIHAGQRGCSALGF [P17 HC] | 3.12 µM |  | 50 µM |  | 6.25 µM | 6.25 µM | 3.12 µM | 0.78 µM | 12.5 µM | 3.12 µM | 1.56 µM
